Melting point data for one compound are collected here from US20080139581A1 (priority 2005, published 2008).

By melting point is commonly meant the temperature of the solid-liquid transition.

Each structure is given as a SMILES string.

Take `CCCCCCCCc1c(CC)nc2nc(Cl)nn2c1N`: the melting point was 202 to 203 °C.
